Measurements from patent US20040009904A1, “APL immunoreactive peptides, conjugates thereof and methods of treatment for aPL antibody-mediated pathologies” (priority 1995, published 2004).
Bridge positions count the residues as written; N and C are the ends. Peptide text beside a SMILES is read from it. * marks the point of attachment. FITC = O=C1OC2(c3ccc(O)cc3Oc3cc(O)ccc32)c2ccc(NC(=S)*)cc21

Tests used:
ACA-6501 [1] = experiment: Direct binding fluorescence polarization binding assay (dbFP); design: species or system human
Text: (§1) This assay detects direct binding of the peptide to aPL antibody. Since aPL antibodies bind to β2-GPI (the antigen), the ELISA competitive inhibition assay can show inhibition due to binding to β2-GPI as well inhibition due to binding of the peptide to the aPL antibody. Because binding to antibodies is required in order for the peptide to function as a Toleragen, it is essential to establish that a peptide can directly bind to an aPL antibody. This assay is used to determine the dissociation constants for peptides that bind to two aPL antibodies, ACA-6501 and ACA-6701. While the ELISA assay is useful for high throughput screening because it requires less antibody than the Fluorescence Polarization assay, however, ELISA-positive peptides should be further evaluated by the Fluorescence Polarization assay to determine whether they are capable of directly binding with aPL antibody.
The methodology is described in PanVera Application Guide (1994), PanVera Corporation. Briefly, a trace amount of fluorescein isothiocyanate (FITC) labeled peptide (CB2*-F) is titrated with antibody (ACA 6501 or 6701) and the polarization for the sample is plotted versus the antibody concentration. Polarization was measured with the PanVera Beacon instrument. Data were fitted to Equation 1. [formula] […]

ACA-6701 = experiment: Direct binding fluorescence polarization binding assay (dbFP) and displacement kinetics; design: species or system human; conditions: for Kd: dbFP
Text: as §1
The methodology is described in PanVera Application Guide (1994), PanVera Corporation. Briefly, a trace amount of fluorescein isothiocyanate (FITC) labeled peptide (CB2*-F) is titrated with antibody (ACA 6501 or 6701) and the polarization for the sample is plotted versus the antibody concentration. Polarization was measured with the PanVera Beacon instrument. Data were fitted to Equation 1. [formula]
where Y is the Y-axis value (milli-polarization units, mP), R is the total concentration of antibody receptor, PL is the polarization for free FITC-labeled peptide (F), and PH is the polarization for F complexed with R (FR). KD is the dissociation constant (reciprocal binding, constant) for F from the FR complex. For these equations to be valid, it must be true that F<<R. This titration is shown in FIGS. 22 and 23 for CB2*-F binding to ACA-6701 and ACA-6501 antibodies, respectively. […] Thus, CB2*-F binding to ACA-6701 is limited only by diffusion of these two molecules together.

[2] = system: affinity-purified ACA-6501 aPL antibody; experiment: Resin-bound peptide binding of affinity-purified IgG aPL antibody; design: species or system human; conditions: immunoconjugate color reaction, versus unrelated control peptide and normal IgG
Text: Phage sequences obtained with affinity-purified ACA-6501 and found to be phage-ELISA-positive were synthesized on a solid support recently developed for combinatorial synthetic peptide libraries. This support, a Rapp resin, has a high peptide density and uses a hydrophilic polyethylene glycol spacer before the first amino acid is coupled. […] Similar results were obtained with the other phage-ELISA-positive peptides tested. In the experiment shown, resin peptide-bound affinity-purified ACA-6501 aPL antibody was detected by an immunoconjugate color reaction.

aPL sera = experiment: Resin-bound peptide binding survey of patient sera; design: species or system human
Text: Two peptides were selected for aPL sera testing, one (5A12) representing the ACA-6501 screen and another one (4D3) representing the ACA-6626 screen. […] However, a significant degree of crossreactivity was detectable especially between ACA-6501 and ACA-6626.

ACA-6501 [3] = experiment: Phage-ELISA; assay type: binding, human; conditions: phage clones coated on wells, affACA-6501 2.5 μg/mL
Description: This method of selecting phage requires very tight binding of the insert to the screening antibody. Phage are directly coated onto wells of a microtitration plate and incubated with the screening antibody. Following washes to remove unbound antibody, an anti-human IgG alkaline phosphatase conjugate is added to bind any aPL antibodies bound to the phage. APL antibodies are then detected by adding a calorimetric substrate to the well which will react with alkaline phosphatase according to methods well known in the art.
Three mL cultures were prepared from 35 clones previously isolated with affinity purified ACA-6501 in several phage library screens as well as one fUSE 2 phage clone lacking a peptide insert which was used as a control. After centrifugation for 3 minutes at 17,000×g, 100 μL from each phage supernatant (adjusted to −2×10^11 particles/mL, based on absorbance) was added to microtitration plate wells (Falcon, Becton-Dickinson Labware, Lincoln Park, N.Y.) and allowed to incubate overnight at 4° C. Following four washes with TBS 7.4, the plate was blocked with 125 μL of 0.5% BSA/TBS for 1 hour at RT. After another four TBS washes, 100 μL of affACA-6501 previously diluted to 2.5 μg/mL in TBS/BSA was added to each well and allowed to incubate 1 hour at 37° C. Following an additional four washes, 100 μL anti-human IgG diluted 1:1000 in TBS/0.5% Tween was added to each well. After 1 hour at RT, enzyme substrate was added and the incubation allowed to proceed for 2 hours. Following the addition of 50 μL 0.2 M Na2HPO4 to stop the reaction, absorbance was measured at 550 nm in the automated plate absorbance reader. […] The sequences for these clones are showvn in Table 2.

ACA-6501 aPL antibody = experiment: Competitive binding peptide-ELISA, plates coated with tetravalent peptide ACA-6501/3B10; design: species or system human; conditions: monomeric peptide, ACA-6501 serum
Text: Once ELISA-positive peptides are identified, it is necessary to quantitate their relative binding affinity to the aPL antibodies and to determine whether or not two peptides bind the same population of antibodies in a given patient serum via a peptide-competition ELISA assay. In this assay, various monomeric peptides compete with tetravalent peptides coated on a microtitration plate well. To perform the assay, the peptides to be evaluated are synthesized as monomers, ie., without the lysine branches employed in the synthesis of the tetravalent peptides, using standard Fmoc chemistry. The monomeric peptides are then purified and dissolved at known concentrations. Wells of a microtitration plate are coated with a tetravalent peptide known to bind to the aPL antibody. Serial dilutions of the monomeric peptides are incubated with a constant dilution of the aPL antibody. The dilution of the aPL antibody was previously determined by titering the antibody against the tetravalent peptide and selecting a dilution on the downslope of the titration curve. After incubating the antibody and monomeric peptides for one hour, the antibody/peptide solutions are added to the microtitration wells and a standard […] ELISA is performed. The concentration of each monomeric peptide that decreases binding of the aPL antibody with the tetravalent peptide is determined by plotting the calorimetric readings obtained for each well. The 50% inhibition point is used as the measure of the relative strength of binding for the monomeric peptides.
(A) Each well of an Immulon II plate (Dynatech Laboratories, Inc., Chantilly Va.) was coated with 100 μL of a solution containing 10 μg tetravalent peptide ACA 6501/3B10 in 50 mM sodium carbonate, pH 9.5, containing 35 mM sodium bicarbonate (Fisher Scientific, Pittsburgh, Pa., reagent grade) for at least 1 hour at RT, except for three wells used as blank controls. […]

CC[C@H](C)[C@@H]1NC(=O)[C@@H](NC(=O)[C@@H]2CCCN2C(=O)CNC(=S)Nc2ccc3c(c2)C(=O)OC32c3ccc(O)cc3Oc3cc(O)ccc32)CSSC[C@@H](C(=O)NCC(=O)O)NC(=O)[C@H](CCCNC(=N)N)NC(=O)[C@H](CC(=O)O)NC(=O)[C@H](CCCNC(=N)N)NC(=O)[C@H](C)NC(=O)[C@H](CC(C)C)NC(=O)[C@H](CC(C)C)NC1=O [CB2*-F, FITC-GPCILLARDRCG] ({FITC}-GPCILLARDRCG-OH; disulfide 3-11)
Kd (ACA-6501 [1]; dbFP titration of FIG. 24, from Equation 1, not corrected for antibody bivalency): 241 nM | Kd (ACA-6501 [1]; dbFP, multiplied by 2 to correct for antibody bivalency): 482 nM | Kd (ACA-6701; from Equation 1, not corrected for antibody bivalency): 256 nM | Kd (ACA-6701; multiplied by 2 to correct for antibody bivalency): 512 nM | dissociation rate constant Koff (ACA-6701; displacement of CB2*-F from 6701 by slight excess of CB2*): 0.0184 s⁻¹ | association rate constant Kon (ACA-6701; from KD and Koff, after correcting for antibody bivalency): 36000 M⁻¹ s⁻¹

CC[C@H](C)[C@@H]1NC(=O)[C@H](CC(C)C)NC(=O)[C@@H](NC(=O)[C@@H]2CCCN2C(=O)CNC(=O)[C@H](C)N)CSSC[C@@H](C(=O)N2CCC[C@H]2C(=O)NCC(=O)O)NC(=O)[C@H](CCCNC(=N)N)NC(=O)[C@H](CC(=O)O)NC(=O)[C@@H]2CCCN2C(=O)[C@H](C)NC(=O)[C@H](CC(C)C)NC1=O [5A12, CLILAPDRC]
binding of affinity-purified ACA-6501 to resin-bound peptide [2]: dramatically outperformed an unrelated control peptide while not binding normal IgG | pathologic sera (moderate to high GPL) with detectable peptide binding (aPL sera; 13 pathologic sera): 8 of the 13 | control sera (low or no GPL score) with low peptide binding (aPL sera; 19 patient sera): 2 out of 19 | signal in the phage-ELISA (ACA-6501 [3]): significant signals

CC(C)C[C@@H]1NC(=O)[C@H](CC(C)C)NC(=O)[C@H](CC(C)C)NC(=O)[C@@H](NC(=O)[C@@H]2CCCN2)CSSC[C@@H](C(=O)N2CCC[C@H]2C(=O)NCC(=O)O)NC(=O)[C@H](CCCNC(=N)N)NC(=O)[C@H](CC(=O)O)NC(=O)[C@@H]2CCCN2C(=O)[C@H](C)NC1=O [peptide 139] (H-PCLLLAPDRCPG-OH; disulfide 2-10)
amount of peptide producing 50% inhibition of binding of ACA-6501 aPL antibody to tetravalent peptide ACA-6501/3B10 (ACA-6501 aPL antibody): 6.9 µg

CC(C)C[C@@H]1NC(=O)[C@H](CC(C)C)NC(=O)[C@H](CC(C)C)NC(=O)[C@@H](NC(=O)[C@@H]2CCCN2C(=O)CNC(=O)[C@H](C)N)CSSC[C@@H](C(=O)N2CCC[C@H]2C(=O)NCC(=O)O)NC(=O)[C@H](CCCNC(=N)N)NC(=O)[C@H](CC(=O)O)NC(=O)[C@@H]2CCCN2C(=O)[C@H](C)NC1=O [peptide 143] (H-AGPCLLLAPDRCPG-OH; disulfide 4-12)
amount of peptide producing 50% inhibition of binding of ACA-6501 aPL antibody to tetravalent peptide ACA-6501/3B10 (ACA-6501 aPL antibody): 0.9 µg

CC(C)C[C@@H]1NC(=O)[C@H](CC(C)C)NC(=O)[C@H](CC(C)C)NC(=O)[C@@H](NC(=O)[C@@H]2CCCN2C(=O)CN)CSSC[C@@H](C(=O)N2CCC[C@H]2C(=O)NCC(=O)O)NC(=O)[C@H](CCCNC(=N)N)NC(=O)[C@H](CC(=O)O)NC(=O)[C@@H]2CCCN2C(=O)[C@H](C)NC1=O [peptide 142] (H-GPCLLLAPDRCPG-OH; disulfide 3-11)
amount of peptide producing 50% inhibition of binding of ACA-6501 aPL antibody to tetravalent peptide ACA-6501/3B10 (ACA-6501 aPL antibody): 0.7 µg
